No end group written: not given here.
Experiment: water solubility test
Assay type: physicochemical
Conditions: 32 mg in 8 ml of water, directly without stirring

Sequence: GPAGARGNDGATGAAGPPGPTGPAGPPGFP
- water solubility: clear solution with no color, no precipitation, and no floating matter

From patent publication US20250320274A1, “RECOMBINANT HUMAN COLLAGEN AND METHOD FOR BUILDING SAME” (NANTONG UNIVERSITY, priority 2020, published 2025)
